The text below walks through data of patent US5332812A, “Solid-phase substrate containing modified heparin” (Board of Regents, The University of Texas System, priority 1991, dated 1994).

Entries after “also recorded” stand apart in the source; their conditions may differ.

Data set [1] has as its system B16 melanoma heparanase. The experiment in a line: Enzymatic degradation of 3H-labeled glycosaminoglycans by B16 melanoma cell extract, analysed by high-speed gel permeation chromatography. It counts as biochemical, mouse. Conditions: for Degradation (heparanase susceptibility): 3H-labeled glycosaminoglycan, cell extract 80 ug protein, pH 6.0, 6 hr at 37 C, 20 mM SAL, decrease in area of high Mr half of peak; for Cleavage by melanoma heparanase (in words): B16 melanoma cell extracts in presence of SAL, FIG. 2; for Percentage degradation of the original substrate: first 6 h incubation with B16 cell extract. The text has this:
The abilities of B16 cells to degrade HS from various origins and other purified glycosaminoglycans (heparin, chondroitin 4-sulfate, chondroitin 6-sulfate, dermatan sulfate, keratan sulfate, and hyaluronic acid) has been studied. […] HS metabolically labeled with [^35 S] sulfate was purified from basement membrane producing EHS sarcoma and PYS-2 carcinoma cells, and subendothelial matrices of bovine aortic endothelial (BAE) and corneal endothelial (BCE) cells (ibid). HS molecules purified from bovine lung and other glycosaminoglycans were labeled with tritium at their reducing termini using NaB[^3 H]4. […] In order to determine specific HS cleavage points, the newly formed reducing termini of HS fragments were investigated by: labeling with NaB[^3 H]4; hydrolysis to monosaccharides; and analysis of these saccharides by paper chromatography.
High-speed gel permeation chromatography. […] A one hundred microliter aliquot of sample solution was delivered into the injection port, and the chromatographic elution was performed with 0.2M sodium chloride at a flow rate of 1.0 ml/min at 55° C. […] In the analysis of radiolabeled materials, fractions corresponding to each 36 s of elution (0.6 ml) were collected and mixed with 3.0 ml of Liquiscint (National Diagnostics, Comerville, N.J.), and counted on a Beckman LS 2800 liquid scintillation counter (Beckman Instruments, Irvine, Calif.).
Enzymatic degradation of unmodified and modified HS. […] The incubation was carried out at 37° C. with gentle mixing, and was terminated by chilling the mixture to 4° C. and adding 20 ul of trichloroacetic acid to a final concentration of 5%. The supernatant was obtained by centrifugation at 9800×g for 5 min and it was subjected to analysis by high-speed gel permeation chromatography.
The effect of N-desulfation and N-acetylation of HS on its susceptibility to melanoma heparanase was assessed using HS labeled with tritium at the reducing terminal saccharide. […] HS labeled with tritium at the reducing end was N-desulfated by solvolysis with DMSO, and N-desulfated [^3 H]HS was then N-acetylated with acetic anhydride. These three ^3 H-labeled, chemically modified HS molecules were analyzed by cellulose acetate electrophoresis in 0.5M pyridine-acetate buffer, pH 5.0.
N-Desulfated and N-acetylated heparin.

In data set [2] the test system is B16 melanoma heparanase. Conditions: labeled glycosaminoglycans, with or without D-saccharic acid 1,4-lactone; cited from earlier work.
For data set [3], the system named is human melanoma heparanase. The experiment in a line: Degradation by heparanase obtained from a human melanoma cell line. It counts as biochemical.
In data set [4] the test system is human melanoma heparanase. The experiment in a line: Inhibition of human melanoma heparanase. Format: biochemical. The text has this: Properties of human melanoma heparanase.
Data set [5] has as its system B16 melanoma heparanase. Conditions: cited from earlier work.

Turning to Carboxyl reduced heparin, the “Degradation (heparanase susceptibility)” value in the data set with B16 melanoma heparanase [1] is “- (less than 5%)”. As for Heparan sulfate [Heparan sulfate (HS)], the “Degradation by B16 cell extracts (earlier publications)” value (“Degradation by B16 cell extracts” below) in the data set with B16 melanoma heparanase [2] was “degraded into fragments of characteristic molecular weight”. Further, the “Degradation by human melanoma heparanase (in words)” value (from here on “Degradation … (in words)”) in data set [3] was “degrades heparan sulfate”. Further, in the data set on B16 melanoma heparanase [1], the “Degradation (heparanase susceptibility)” value is recorded as “+ (more than 80%)” and the “Cleavage by melanoma heparanase (in words)” value (shortened to “Cleavage … (in words)”) was “cleaved by melanoma heparanase at high rates”. On to Heparin, for which, in the data set with B16 melanoma heparanase [2], the “Degradation by B16 cell extracts” value is “essentially undegraded; also recorded: inactive”. In addition, the “Inhibition of melanoma heparanase (in words)” value in data set [4] was “potent inhibitors”. Also, in the data set with B16 melanoma heparanase [1], the “Degradation (heparanase susceptibility)” value is reported as “- (less than 5%)” and the “Percentage degradation of the original substrate” value was “less than 5%”. Moreover, in the data set on B16 melanoma heparanase [5], the “Inhibition of HS degradation / B16 melanoma heparanase (earlier publications)” value is on record as “inhibited HS degradation; also recorded: potent inhibitor”.

N,O-Desulfated HS: the “Degradation (heparanase susceptibility)” value in the data set on B16 melanoma heparanase [1] was “+ (more than 80%)”.

Consider N,O-Desulfated and N-acetylated HS, for which the “Degradation (heparanase susceptibility)” value in the data set on B16 melanoma heparanase [1] is reported as “+ (more than 80%)”. Consider N,O-Desulfated and N-acetylated heparin, for which, in the data set on B16 melanoma heparanase [1], the “Degradation (heparanase susceptibility)” value is recorded as “± (5% to 15%)”. As to N,O-Desulfated heparin, in the data set on B16 melanoma heparanase [1], the “Degradation (heparanase susceptibility)” value was “- (less than 5%)”.

On to N-Desulfated and N-methylated heparin, for which the “Degradation (heparanase susceptibility)” value in the data set with B16 melanoma heparanase [1] was “- (less than 5%)”. Take N-Desulfated heparin: in the data set on B16 melanoma heparanase [1], the “Degradation (heparanase susceptibility)” value is “- (less than 5%)”. “N-desulfated N-acetylated heparan sulfate [N-Desulfated and N-acetylated HS]”: the “Degradation … (in words)” value in data set [3] is given as “efficiently cleave”. In addition, in the data set with B16 melanoma heparanase [1], the “Degradation (heparanase susceptibility)” value is “+ (more than 80%)” and the “Cleavage … (in words)” value was “cleaved by melanoma heparanase at high rates”. For the substance “N-desulfated N-acetylated heparin [N-Desulfated and N-acetylated heparin]”, the “Degradation … (in words)” value in data set [3] is given as “only partially degrade”. Moreover, in the data set with B16 melanoma heparanase [1], the “Degradation (heparanase susceptibility)” value is reported as “± (5% to 15%)” and the “Percentage degradation of the original substrate” value is reported as “approximately 20%”. Also, the “Further cleavage after prolonged incubation” value in the data set with B16 melanoma heparanase [1] (prolonged incubation with B16 cell extract) is listed as “not further cleaved”. Regarding “N-desulfated heparan sulfate [N-Desulfated HS]”, the “Degradation … (in words)” value in data set [3] is on record as “efficiently cleave”. In the data set on B16 melanoma heparanase [1], the “Degradation (heparanase susceptibility)” value is “+ (more than 80%)” and the “Cleavage … (in words)” value is reported as “cleaved by melanoma heparanase at high rates”. chondroitin 4-sulfate: the “Degradation by B16 cell extracts” value in the data set on B16 melanoma heparanase [2] is reported as “essentially undegraded”. In the case of chondroitin 6-sulfate, the “Degradation by B16 cell extracts” value in the data set on B16 melanoma heparanase [2] is recorded as “essentially undegraded”. For dermatan sulfate, the “Degradation by B16 cell extracts” value in the data set with B16 melanoma heparanase [2] was “essentially undegraded”.

For dextransulfate, in data set [4], the “Inhibition of melanoma heparanase (in words)” value was “potent inhibitors”. For the substance hyaluronic acid, the “Degradation by B16 cell extracts” value in the data set with B16 melanoma heparanase [2] was “essentially undegraded”. As to keratan sulfate, the “Degradation by B16 cell extracts” value in the data set on B16 melanoma heparanase [2] is “essentially undegraded”.
